{"source": "patent US20110251063A1", "about": "“HETEROCYCLIC DIKETONE DERIVATIVES WITH HERBICIDAL ACTION” (priority 2008, published 2011)", "key": {"AMARE": {"system": "AMARE", "test": "greenhouse post-emergence herbicidal activity against AMARE", "assay_type": "in vivo, Amaranthus retroflexus", "conditions": "scale 0 to 100", "from_the_text": "(§1) The seeds of the test plants were sown separately for each species. For the post-emergence treatment, the test plants were first grown to a height of 3 to 15 cm, depending on the plant habit, and then treated with the active compounds which had been suspended or emulsified in water. For this purpose, the test plants were either sown directly and grown in the same containers, or they were first grown separately as seedlings and transplanted into the test containers a few days prior to treatment. Depending on the species, the plants were kept at 10-25° C. or 20-35° C. The test period extended over 2 to 4 weeks. During this time, the plants were tended, and their response to the individual treatments was evaluated. Evaluation was carried out using a scale from 0 to 100. 100 means no emergence of the plants, or complete destruction of at least the aerial moieties, and 0 means no damage, or normal course of growth. A good herbicidal activity is given at values of at least 70 and a very good herbicidal activity is given at values of at least 85. The plants used in the greenhouse experiments belonged to the following species: [table]"}, "ABUTH": {"system": "ABUTH", "test": "greenhouse pre-emergence herbicidal activity against ABUTH", "assay_type": "in vivo, Abutilon theophrasti", "conditions": "application rate 3.0 kg/ha, scale 0 to 100", "from_the_text": "(§2) The seeds of the test plants were sown separately for each species. For the pre-emergence treatment, the active compounds, which had been suspended or emulsified in water, were applied directly after sowing by means of finely distributing nozzles. The containers were irrigated gently to promote germination and growth and subsequently covered with transparent plastic hoods until the plants had rooted. This cover caused uniform germination of the test plants, unless this has been impaired by the active compounds. Depending on the species, the plants were kept at 10-25° C. or 20-35° C. The test period extended over 2 to 4 weeks. During this time, the plants were tended, and their response to the individual treatments was evaluated. Evaluation was carried out using a scale from 0 to 100. 100 means no emergence of the plants, or complete destruction of at least the aerial moieties, and 0 means no damage, or normal course of growth. A good herbicidal activity is given at values of at least 70 and a very good herbicidal activity is given at values of at least 85. The plants used in the greenhouse experiments belonged to the following species: [table]"}, "GALAP": {"system": "GALAP", "test": "greenhouse post-emergence herbicidal activity against GALAP", "assay_type": "in vivo, Galium aparine", "conditions": "application rate 0.25 kg/ha, scale 0 to 100", "from_the_text": "as §1"}, "ALOMY": {"system": "ALOMY", "test": "greenhouse post-emergence herbicidal activity against ALOMY", "assay_type": "in vivo, Alopecurus myosuroides", "conditions": "application rate 3.0 kg/ha, scale 0 to 100", "from_the_text": "as §1"}, "CHEAL": {"system": "CHEAL", "test": "greenhouse post-emergence herbicidal activity against CHEAL", "assay_type": "in vivo, Chenopodium album", "conditions": "scale 0 to 100", "from_the_text": "as §1"}, "SETIT": {"system": "SETIT", "test": "greenhouse pre-emergence herbicidal activity against SETIT", "assay_type": "in vivo, Setaria italica", "conditions": "application rate 3.0 kg/ha, scale 0 to 100", "from_the_text": "as §2"}, "SETFA": {"system": "SETFA", "test": "greenhouse post-emergence herbicidal activity against SETFA", "assay_type": "in vivo, Setaria faberi", "conditions": "application rate 3.0 kg/ha, scale 0 to 100", "from_the_text": "as §1"}}}
{"smiles": "COC(=O)C(C(=O)c1ncccc1O)c1ccccc1C(F)(F)F", "note": "(stereo not drawn) [I-1, methyl 3-(3-hydroxypyridin-2-yl)-3-oxo-2-(2-trifluoromethylphenyl)propionate]", "values": [{"measurement": "herbicidal activity against AMARE", "setting": "AMARE; application rate 0.25 kg/ha", "value": "Very good"}, {"measurement": "herbicidal activity against ABUTH", "setting": "ABUTH", "value": "good (A good herbicidal activity is given at values of at least 70)"}, {"measurement": "herbicidal activity against GALAP", "setting": "GALAP", "value": "very good (a very good herbicidal activity is given at values of at least 85)"}, {"measurement": "herbicidal activity against ALOMY", "setting": "ALOMY", "value": "good (A good herbicidal activity is given at values of at least 70)"}, {"measurement": "herbicidal activity against CHEAL", "setting": "CHEAL; application rate 0.25 kg/ha", "value": "Very good"}, {"measurement": "herbicidal activity against SETIT", "setting": "SETIT", "value": "very good (a very good herbicidal activity is given at values of at least 85)"}, {"measurement": "herbicidal activity against SETFA", "setting": "SETFA", "value": "very good (a very good herbicidal activity is given at values of at least 85)"}]}
{"smiles": "COC(=O)C(=C(OC(C)=O)c1ncccc1OC(C)=O)c1ccccc1C(F)(F)F", "note": "[I-2, methyl 3-acetoxy-3-(3-acetoxypyridin-2-yl)-2-(2-trifluoromethylphenyl)acrylate]", "values": [{"measurement": "herbicidal activity against AMARE", "setting": "AMARE; application rate 0.5 kg/ha", "value": "Very good"}, {"measurement": "herbicidal activity against CHEAL", "setting": "CHEAL; application rate 0.5 kg/ha", "value": "Very good"}]}
